Measurements published in article PMC10458893, “Design of Protegrin-1 Analogs with Improved Antibacterial Selectivity” (Pharmaceutics, 2023).
Values after ≈ are worked out from the molar mass of the structure shown. Read-outs that look alike come from different tables or passages of the source. Positions of bridges follow the written chain, without caps; N, C: chain ends. Residues, ends and D or L forms follow the SMILES beside them.

Tests used:
[1] = system: Acinetobacter baumannii (strain XDR CI 2675); type: cell-based
Experimental: (§1) The antimicrobial activity of the peptides was determined using two-fold serial dilutions in sterile 96-well flat-bottom polystyrene microplates (Eppendorf, Hamburg, Germany) (Cat. No. 0030730011), as previously described. The following strains of bacteria were used: E. coli ATCC 25922, E. coli ML35p (ATCC collection), E. coli BW 25113 (Keio collection), Pseudomonas aeruginosa PAO1 (ATCC collection), P. aeruginosa ATCC 27853, Klebsiella pneumoniae ATCC 700603, Staphylococcus aureus 209P (ATCC collection), S. aureus ATCC 29213, and Micrococcus luteus B-1314 (VKM collection). Acinetobacter baumannii (strain XDR CI 2675) was provided by the I.M. Sechenov First Moscow State Medical University hospital. After a 24 h incubation period, the metabolic activity of the bacteria was assessed by adding 20 µL of a redox indicator, resazurin (Sigma-Aldrich, St. Louis, MO, USA), at a concentration of 0.1 mg/mL, to the wells. The plate was then incubated for a further two hours. The minimum inhibitory concentration (MIC) was determined as the lowest concentration of the peptide at which no color change in the resazurin indicator was observed. The results were presented as median values, which were determined based on at least three independent experiments carried out in triplicate.

[2] = system: E. coli ATCC 25922; type: cell-based; conditions: ATCC 25922, 24 h
Experimental: as §1

[3] = system: E. coli BW 25113; type: cell-based; conditions: two-fold serial dilutions, 24 h incubation, resazurin read-out; median of at least three independent experiments in triplicate
Experimental: as §1

[4] = system: E. coli ML35p; type: cell-based
Experimental: as §1

[5] = system: all the test strains; type: cell-based; conditions: geometric mean over the 10 test strains
Experimental: as §1

[6] = system: P. aeruginosa ATCC 27853; type: cell-based, Pseudomonas aeruginosa; conditions: ATCC 27853, 24 h
Experimental: as §1

[7] = system: P. aeruginosa PAO1; type: cell-based, Pseudomonas aeruginosa; conditions: PAO1, 24 h
Experimental: as §1

[8] = system: K. pneumoniae ATCC 700603; type: cell-based, Klebsiella pneumoniae; conditions: ATCC 700603, 24 h
Experimental: as §1

[9] = system: S. aureus 209P; type: cell-based, Staphylococcus aureus; conditions: 24 h
Experimental: as §1

[10] = system: S. aureus ATCC 29213; type: cell-based, Staphylococcus aureus; conditions: ATCC 29213, 24 h
Experimental: as §1

[11] = system: M. luteus B-1314; type: cell-based, Micrococcus luteus; conditions: B-1314, 24 h
Experimental: as §1

[12] = system: freshly isolated human erythrocytes (hRBCs); test: Hemolysis assay (hemoglobin release); type: cell-based; conditions: red cells of human, 64
Excerpt: To assess the hemolytic activity of the compounds, freshly isolated human erythrocytes (hRBCs) were used according to the methodology described in a previous study. Melittin was used as a positive peptide control that induces significant hemolysis. Isotonic phosphate buffer (PBS) served as a negative control, while 0.1% Triton X-100 solution was used as a control for complete hemolysis.

[13] = system: human keratinocyte cell line (HaCaT); test: Cytotoxicity MTT assay; type: cell-based; conditions: 18 h, 128
Experimental: In order to evaluate the cytotoxicity of the peptides against a human keratinocyte cell line (HaCaT, Cat. No. 300493) (Cell Lines Service, Köln, Germany), the colorimetric 3-(4,5-dimethylthiazol-2-yl)-2,5-diphenyltetrazolium bromide (MTT) dye reduction assay was performed, as described in a previous publication. Wells containing no peptide were used as a 100% survival control. Each peptide was tested in two separate experiments to ensure the reliability of the results.

[14] = system: E. coli ATCC 25922; test: Systemic septicemia infection mice model; type: in vivo; conditions: BALB/c mice n = 5, i.p. E. coli ATCC 25922 10^6 CFU with mucin, 7 days
Experimental: Experiments were performed with male and female 8–10-week-old BALB/c mice (22–24 g, “Andreevka” laboratory animal nursery FMBA, Russia) according to the previously described method. Briefly, a total of 3 groups of 5 mice per group were infected by intraperitoneal (i.p.) injection of the bacterial inoculum (E. coli ATCC 25922), 10^6 colony forming units (CFU) per animal, in the presence of mucin. All the animals received two i.p. injections: 1 h and 4 h after bacterial challenge. The first group received ciprofloxacin (Sigma-Aldrich, St. Louis, MO, USA) as a positive control at a dose of 10 mg/kg per injection. The second group received peptide [V16R] at a dose of 5 mg/kg per injection. The third group received PBS as a vehicle control. Animals were monitored for 7 days post-infection. All the surviving mice were euthanized by CO2 asphyxiation. The spleen was aseptically removed, homogenized, serially diluted, and plated on Endo agar to detect CFU in a sample.

| SMILES | MIC, A. baumannii ([1]; strain XDR CI 2675, 24 h) | MIC, E. coli ATCC 25922 [2] | MIC, E. coli BW 25113 [3] | MIC, E. coli ML35p ([4]; ML35p, 24 h) | MIC (GM), geometric mean of the peptide's MICs against all the test strains [5] | MIC, P. aeruginosa ATCC 27853 [6] | MIC, P. aeruginosa PAO1 [7] | MIC, K. pneumoniae ATCC 700603 [8] | MIC, S. aureus 209P [9] | MIC, S. aureus ATCC 29213 [10] | MIC, M. luteus B-1314 [11] | Hemolytic activity, % (64 μM) [12] | Cell Viability, % (128 μM) [13] | Deaths of mice ([14]; 5 mg/kg i.p. at 1 h and 4 h) | Therapeutic efficacy (survival) ([14]; 5 mg/kg i.p. at 1 h and 4 h, chloride form) | MIC, A. baumannii ([1]; strain XDR CI 2675, two-fold serial dilutions, 24 h incubation, resazurin read-out, median of at least three independent experiments in triplicate) | MIC, E. coli ML35p ([4]; two-fold serial dilutions, 24 h incubation, resazurin read-out, median of at least three independent experiments in triplicate) | Survival of mice ([14]; 10 mg/kg i.p. at 1 h and 4 h) |
| --- | --- | --- | --- | --- | --- | --- | --- | --- | --- | --- | --- | --- | --- | --- | --- | --- | --- | --- |
| CC(C)C[C@H](NC(=O)[C@H](CCCNC(=N)N)NC(=O)CNC(=O)CNC(=O)[C@@H](N)CCCNC(=N)N)C(=O)N[C@H]1CSSC[C@@H](C(=O)N[C@@H](C)C(=O)NCC(=O)N[C@@H](CCCNC(=N)N)C(=O)O)NC(=O)[C@H](C(C)C)NC(=O)[C@@H]2CSSC[C@H](NC(=O)[C@H](Cc3ccc(O)cc3)NC1=O)C(=O)N[C@@H](CCCNC(=N)N)C(=O)N[C@@H](CCCNC(=N)N)C(=O)N[C@@H](CCCNC(=N)N)C(=O)N[C@@H](Cc1ccccc1)C(=O)N2 [[V16A]] (H-RGGRLCYCRRRFCVCAGR-OH; disulfide 6-15, 8-13; N-terminus and C-terminus assumed) | 0.125 µM (≈ 0.266 µg/mL) | 0.5 µM (≈ 1.06 µg/mL) | 0.25 µM (≈ 0.532 µg/mL) | 0.125 µM (≈ 0.266 µg/mL) | 0.4 µM | 0.5 µM (≈ 1.06 µg/mL) | 0.25 µM (≈ 0.532 µg/mL) | 1 µM (≈ 2.13 µg/mL) | 1 µM (≈ 2.13 µg/mL) | 1 µM (≈ 2.13 µg/mL) | 0.5 µM (≈ 1.06 µg/mL) | 47.8 (±11.96) % | 8.0 (± 5.35) % |  |  |  |  |  |
| CC(C)C[C@H](NC(=O)[C@H](CCCNC(=N)N)NC(=O)CNC(=O)CNC(=O)[C@@H](N)CCCNC(=N)N)C(=O)N[C@H]1CSSC[C@@H](C(=O)N[C@@H](CCCNC(=N)N)C(=O)NCC(=O)N[C@@H](CCCNC(=N)N)C(=O)O)NC(=O)[C@H](C(C)C)NC(=O)[C@@H]2CSSC[C@H](NC(=O)[C@H](Cc3ccc(O)cc3)NC1=O)C(=O)N[C@@H](CCCNC(=N)N)C(=O)N[C@@H](CCCNC(=N)N)C(=O)N[C@@H](CCCNC(=N)N)C(=O)N[C@@H](Cc1ccccc1)C(=O)N2 [[V16R]] (H-RGGRLCYCRRRFCVCRGR-OH; disulfide 6-15, 8-13) | 0.125 µM (≈ 0.277 µg/mL) | 0.5 µM (≈ 1.11 µg/mL) | 0.25 µM (≈ 0.553 µg/mL) | 0.25 µM (≈ 0.553 µg/mL) | 0.8 µM | 0.5 µM (≈ 1.11 µg/mL) | 1 µM (≈ 2.21 µg/mL) | 4 µM (≈ 8.85 µg/mL) | 4 µM (≈ 8.85 µg/mL) | 4 µM (≈ 8.85 µg/mL) | 1 µM (≈ 2.21 µg/mL) | 2.8 (±0.2) % | 80.0 (± 8.62) % | two out of five | 60% |  |  |  |
| CC(C)C[C@H](NC(=O)[C@H](CCCNC(=N)N)NC(=O)CNC(=O)CNC(=O)[C@@H](N)CCCNC(=N)N)C(=O)N[C@H]1CSSC[C@@H](C(=O)N[C@H](C(=O)NCC(=O)N[C@@H](CCCNC(=N)N)C(=O)O)C(C)C)NC(=O)[C@H](C(C)C)NC(=O)[C@@H]2CSSC[C@H](NC(=O)[C@H](CCCNC(=N)N)NC1=O)C(=O)N[C@@H](CCCNC(=N)N)C(=O)N[C@@H](CCCNC(=N)N)C(=O)N[C@@H](CCCNC(=N)N)C(=O)N[C@@H](Cc1ccccc1)C(=O)N2 [[Y7R]] (H-RGGRLCRCRRRFCVCVGR-OH; disulfide 6-15, 8-13; N-terminus and C-terminus assumed) |  | 0.5 µM (≈ 1.07 µg/mL) | 0.5 µM (≈ 1.07 µg/mL) |  | 2.5 µM | 4 µM (≈ 8.6 µg/mL) | 8 µM (≈ 17.2 µg/mL) | 8 µM (≈ 17.2 µg/mL) | 16 µM (≈ 34.4 µg/mL) | 16 µM (≈ 34.4 µg/mL) | 2 µM (≈ 4.3 µg/mL) | 2.1 (±0.53) % | 67.6 (± 8.68) % |  |  | 0.5 µM (≈ 1.07 µg/mL) | 0.5 µM (≈ 1.07 µg/mL) |  |
| O=C(O)c1cn(C2CC2)c2cc(N3CCNCC3)c(F)cc2c1=O [ciprofloxacin, reference compound] |  |  |  |  |  |  |  |  |  |  |  |  |  |  |  |  |  | survival of all mice |
